Reference: patent US20120171213A1, “METHOD OF TREATING TUMORS” (Yissum Research Development Company of the Hebrew …, priority 2009, published 2012)

Key:
[1] = tested on: hES-cell teratoma-derived tumor cells (WA09, TE06); test: Annexin V / PI flow cytometry for apoptosis after Taxol and Purvalanol A treatment in vitro; type: cell-based, human; conditions: 0.2 µM Taxol 16 hours and/or 10 µM Purvalanol A 16 hours, sequential, versus DMSO, n=5
Description: FACS: Annexin V and PI staining for apoptosis detection was performed using the Annexin V-PE kit (Bender MedSystems) according to the manufacturer's instructions. FACS analysis was performed using FACSCaliber system (Becton Dickinson). Analysis was performed on […] software (Becton Dickinson). Forward and side scatter plots were used to exclude debris from the histogram analysis.
The medium was then replaced with a medium containing […] Purvalanol A (Sigma), and the cells were cultured for an additional 16 hours. Other wells were treated with either Taxol for 16 hours followed by DMSO (the solution vehicle) for 16 hours or DMSO for 16 hours followed by Purvalanol A for 16 hours. Control wells were treated twice with DMSO at the same time points. Mice bearing hES-cell teratomas for 30 d were injected intraperitoneally with 7 mg/kg Taxol and 24 hours later were injected with 60 mg/kg Purvalanol A. Reagents were injected in a solution of DMSO/PEG400 at 1:1 ratio. Control mice received vehicle injections at the same time points. Mice were euthanized 18 hours after the last injection. Fresh frozen […] teratoma sections were subjected to TUNEL using the ApoAlert DNA Fragmentation Assay Kit (Clontech) according to the manufacturer's instructions.

tumor cell = conditions: both in vitro and in vivo; cited from earlier work

Compound	fold increase in apoptotic cells (Annexin V positive) [1]	tumor cell death by apoptosis (tumor cell)
CC(C)[C@H](CO)Nc1nc(Nc2cccc(Cl)c2)c2ncn(C(C)C)c2n1 [Purvalanol A]	no significant effect	negligible results
CC(=O)O[C@H]1C(=O)[C@@]2(C)[C@H]([C@H](OC(=O)c3ccccc3)[C@]3(O)C[C@H](OC(=O)[C@H](O)[C@@H](NC(=O)c4ccccc4)c4ccccc4)C(C)=C1C3(C)C)[C@]1(OC(C)=O)CO[C@@H]1C[C@@H]2O [Taxol]		negligible results
